According to patent US20250197865A1, “PHARMACEUTICAL COMPOSITION FOR TREATMENT OR PREVENTION OF FIBROTIC DISEASE” (KYUSHU UNIVERSITY, NATIONAL UNIVERSITY CORPORATION, priority 2022, published 2025):

Columns and labels:
SMAD3 mRNA = experiment: si Smad3 transfection of myofibroblasts from carbon tetrachloride-induced fibrotic liver, SMAD3 mRNA; format: cell-based, mouse; conditions: myofibroblasts from CCl4 liver fibrosis model; versus si Ctrl; FIG. 26c
Experimental: The mRNA expression levels of P4HA3 etc. in the examples of the present specification were quantified as follows. The concentration of purified RNA was determined using a microspectrophotometer DS-11 (DeNovix), and reverse transcription to cDNA was performed using a High Capacity cDNA Reverse Transcription Kit (Applied Biosystems). Quantification of mRNA was performed according to the protocol of Luna Universal qPCR Master Mix (New England BioLabs), with DNA polymerase activation at 95° C. for 60 seconds, followed by 45 cycles of cDNA denaturation at 95° C. for 15 seconds and extension at 60° C. for 30 seconds. Analysis was performed by the AACt method using GAPDH as an internal standard. Mouse Cyp7al probe was purchased from Applied Biosystems. Primers and probes for mouse α-smooth muscle actin (α-SMA), CD68, 1α1 collagen (Col1α1), 1α2 collagen (Col1α2), 1α3 collagen (Col1α3), 6α1 collagen (Col6α1), 8α1 collagen (Co81α1), GAPDH (glyceraldehyde-3-phosphate dehydrogenase), heat shock protein 47 (Hsp47), prolyl 4-hydroxylase alphal subunit (P4HA1), prolyl 4-hydroxylase alpha2 subunit (P4HA2), and prolyl 4-hydroxylase alpha3 subunit (P4HA3) were purchased from Sigma-Aldrich.
Hepatic stellate cells, which are involved in liver fibrosis, are known to be activated by TGFβ (Fabregat, I. et al., FEBS J., 283:2219-2232 (2016)). […]

[1] = system: mRNA expression of fibrosis-related factors (collagens, elastin) in myofibroblasts; experiment: siRNA treatment of myofibroblasts from carbon tetrachloride-induced fibrotic liver, fibrosis-related factor mRNA by real-time RT-PCR; format: cell-based, mouse; conditions: myofibroblasts from CCl4 liver fibrosis model; si Smad3 versus si Ctrl; P4HA3, Col1α1, Col1α2, Col3α1; FIG. 26c

si Smad3: siRNA for mouse SMAD3, SEQ ID NOs: 14 and 15; ThermoFisher Scientific catalog 4390771, Assay ID s69495 (chain 1 GGAATTTGCTGCCCTCCTATT; chain 2 TAGGAGGGCAGCAAATTCCCT; listed as DNA, chemistry not given here)
mRNA expression of SMAD3 (SMAD3 mRNA): inhibits
mRNA expression of fibrosis-related factors including P4HA3 [1]: suppressed
